Reference: patent publication US12109315B2, “Method for treating Blastocystis infection” (Imam Abdulrahman Bin Faisal University, priority 2022, dated 2024)
Where two headings read alike, the source gives them in different places.

Assays:
Blastocystis cysts = experiment: organism not typed; format: cell-based; conditions: read-out: Reduction in the percentage of viability of Blastocystis cysts
Description: Suspensions of cultured Blastocystis from symptomatic patients were used for evaluating biological activities of the formulated nanocomposites. Blastocystis were obtained from the El-Badry Lab where ethically approved by the Deanship of Scientific Research and Postgraduate Studies of Imam Abdulrahman Bin Faisal University under the Institutional Review Board (IRB) number (IRB #2021-01-009).
Blastocystis were sub-cultured using fresh Jones' medium enriched with 10% horse serum according to Jones to get rid of stool debris [Jones, W. Ann Trop Med Parasitol., 1946, 40, 130-140; & Zman, V., and Khan, K. Southt Asian J Trop Med Public Health, 1994, 25, 792-793, each of which is incorporated herein by reference in its entirety]. Cultures with vacuolar forms of Blastocystis greater than 10^6 were used for evaluating biological activities of the formulated nanocomposites.
Suspension of cultured Blastocytis cysts, in logarithmic growth phase of 10^6/ml, were inoculated in sets of culture tubes with Jones' culture media. Haemocytometer counting chamber was used to count the number of Blastocystis cysts. The experiments contained 3 groups as follows:
Group 1 (G1): parasite (negative, not treated) control group, containing only cultured cysts of Blastocystis.
Group 2 (G2): drug (positive) control, containing cultured parasites exposed to 500 μg/ml metronidazole as reference anti-Blastocystis therapy.
Group 3 (G3): nanocomposites tested group, containing cultured parasites exposed to the three nanocomposites. G3 was further divided into subgroups to test three nanocomposites (G3A, G3B and […]) at different concentrations (G3i-iv). Parasites were exposed to increasing concentrations of the three nanocomposites of 100 μg/ml (G3i) 200 μg/ml (G3ii), 500 μg/ml (G3iii) and 800 μg/ml (G3iv) (W/V). All tubes were incubated at 37° C. in humidified CO2 for 48 hours.
All tested nanocomposites for each concentration were prepared by diluting stock solution in appropriate amount of PBS. The volume of each of the experiment tubes was brought to 1 ml with Blastocystis 10^6/ml concentration. All experiments were performed in triplicate [El-Sayed, S. H., et. al., Res J Parasitol., 2017, 12,2, 33-44; Méabed, E. M. H., Phytomedicine, 2018, 1, 43, 158-163; & Mokhtar, A. B., et. al., Int J Environ Res Public Health, 2019, 16, 1555, each of which is incorporated herein by reference in its entirety].
The number of Blastocystis cysts from all cultured tubes included in the experiment were counted under the microscope in haemocytometer counting chamber, and cultured Blastocystis cysts were tested for their viability using Trypan blue solution (0.4%). […] The dead Blastocystis cysts were further confirmed by microscopic detection of cell wall disruption and destruction of internal structures. All cultured tubes were examined for percentage of reduction in growth of Blastocystis cysts each hour for 5 hours then after 24 hours. The minimal lethal concentration (MLC) was determined to be the concentration at which no Blastocystis cysts were observed.

[1] = Drug release study (dialysis membrane, PBS, UV-visible spectroscopy); format: physicochemical; conditions: within 12 h, absence of nanocarrier, PBS pH 5.6, 37° C.
Experimental: Prior to the study, the dialysis membrane (12 KDa, Sigma Aldrich) was activated and then 15 mg of nanoformulation was dispersed in 25 ml of PBS solution (pH 5.6 and 7.4). The release of antioxidants are studied at 37° C. At regular time interval, 5 ml of solution was withdrawn, and release of antioxidants were measured using UV-visible spectroscopy. The withdrawn solution (5 ml) was replaced with equal volume of fresh PBS solution.
Various concentration of aliquots 5, 10, 15, 20, 25 and 30 μg/ml was prepared with makeup volume to 10 ml using release medium PBS solution (pH=5.6 or 7.4) and calibration curve established against blank at maximum absorption wavelength λmax of 428 nm and 307 nm, respectively. […] The release study was repeated in triplicates.

maximum release of resveratrol (burst release) [1] [%]	Structure (SMILES)	inhibition at 500 µg/mL (Blastocystis cysts; 1 h) [%]	inhibition at 500 µg/mL (Blastocystis cysts; 2 h) [%]	inhibition at 500 µg/mL (Blastocystis cysts; 3 h) [%]	inhibition at 500 µg/mL (Blastocystis cysts; 4 h) [%]	inhibition at 500 µg/mL (Blastocystis cysts; 5 h) [%]	inhibition at 500 µg/mL (Blastocystis cysts; 24 h) [%]
	Cc1ncc([N+](=O)[O-])n1CCO [Metronidazole, metronidazole]	81.7	87.7	91.3	96.3	98.7	99.3
43	Oc1ccc(/C=C/c2cc(O)cc(O)c2)cc1 [resveratrol, Resveratrol]						
